According to PMC5916772 (ACS combinatorial science, 2017):

Key:
[1] = test system: polyclonal anti-1′Nic antiserum; assay: Competition ELISA of polyclonal anti-1′Nic antiserum on 1′Nic-BSA coated plates; assay type: binding, mice; conditions: pooled polyclonal anti-1′Nic antiserum; free HPs as competitors
[2] = test system: monoclonal anti-1′Nic antibody, mAb-5F3; assay type: binding, mice

Compound	HP-IC50/Nic-IC50 ratio, binding activity to antiserum [1]	HP-IC50/Nic-IC50 ([2]; IC50 ratio of HP-IC50 to IC50 of free nicotine on the same ELISA plate)	IC50 ([2]; read-out: HP-IC50, free HPs as competitors, 1′Nic-BSA coated plates)
O=C(CCCN1CCC[C@H]1c1cccnc1)NC1CCC(C(=O)O)CC1 (stereo partly drawn) [HP 2, 4-(4-((S)-2-(Pyridin-3-yl)pyrrolidin-1-yl)butanamido)-cyclohexanecarboxylic Acid]	close to or larger than 1.0	–	–
CN1CCC[C@H]1c1cccnc1 [free Nic, nicotine]	–	1.0	1410 ± 250 nM
